Laboratory results: PMC8260145 (Archives of biochemistry and biophysics, 2021)
Several values for one entry are separate records, joined by “and”; a condition that tells them apart may be missing. Equal values may be shown once. Read-outs that look alike come from different tables or passages of the source.

Tests used:
recombinant human CYP3A4 [1] = molecular target: T1, recombinant human CYP3A4 (Homo sapiens, UniProt P08684)
recombinant human CYP3A5 [2] = molecular target: T2, recombinant human CYP3A5 (Homo sapiens, UniProt P20815); assay: biochemical
T2 sequence (P20815 whole entry): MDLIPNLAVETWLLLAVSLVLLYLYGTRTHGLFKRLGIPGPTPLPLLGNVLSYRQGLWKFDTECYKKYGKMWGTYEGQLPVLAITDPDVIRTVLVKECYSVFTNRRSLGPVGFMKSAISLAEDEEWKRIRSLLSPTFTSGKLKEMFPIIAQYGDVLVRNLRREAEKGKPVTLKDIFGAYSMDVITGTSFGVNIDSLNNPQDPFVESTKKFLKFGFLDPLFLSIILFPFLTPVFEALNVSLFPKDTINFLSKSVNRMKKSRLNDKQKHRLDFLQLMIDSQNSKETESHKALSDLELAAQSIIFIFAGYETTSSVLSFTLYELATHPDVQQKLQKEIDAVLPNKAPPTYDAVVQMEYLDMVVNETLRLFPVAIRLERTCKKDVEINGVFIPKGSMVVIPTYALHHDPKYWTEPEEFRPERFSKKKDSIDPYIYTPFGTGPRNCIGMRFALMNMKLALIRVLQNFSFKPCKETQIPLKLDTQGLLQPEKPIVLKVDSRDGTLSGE

[3] = molecular target: T3, recombinant human CYP2C19 (Homo sapiens, UniProt P33261); assay: Inhibition of C152 metabolism in SS
T3 sequence (P33261 whole entry): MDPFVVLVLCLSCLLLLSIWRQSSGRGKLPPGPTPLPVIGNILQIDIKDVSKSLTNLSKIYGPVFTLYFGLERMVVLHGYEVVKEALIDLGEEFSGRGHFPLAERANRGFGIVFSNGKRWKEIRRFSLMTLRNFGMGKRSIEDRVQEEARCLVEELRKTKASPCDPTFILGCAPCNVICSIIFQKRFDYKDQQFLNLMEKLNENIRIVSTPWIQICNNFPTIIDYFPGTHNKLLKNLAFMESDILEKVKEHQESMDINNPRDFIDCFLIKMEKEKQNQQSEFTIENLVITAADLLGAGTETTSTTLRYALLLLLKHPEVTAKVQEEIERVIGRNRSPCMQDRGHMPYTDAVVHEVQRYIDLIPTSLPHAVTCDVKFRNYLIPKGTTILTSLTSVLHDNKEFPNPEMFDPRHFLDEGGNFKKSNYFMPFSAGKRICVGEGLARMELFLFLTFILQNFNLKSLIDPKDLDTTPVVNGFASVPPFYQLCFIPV

CYP2A6 [4] = assay: 7-hydroxylation of coumarin in HLM; format: in vitro ADME, human; conditions: HLM(ODN), added CYP2A6 0
recombinant human CYP3A4 [5] = molecular target: T1, recombinant human CYP3A4; assay: Inhibition of C152 metabolism in SS
human liver microsomes [6] = assay: Inhibition of C152 metabolism in human liver microsomes; format: biochemical; conditions: 30 μM C152; for IC50: read-out: IC50 ((+)-N-3-Benzylnirvanol)
recombinant human CYP2B6 [7] = molecular target: T4, recombinant human CYP2B6 (Homo sapiens, UniProt P20813); assay: Inhibition of C152 metabolism in SS
T4 sequence (P20813 1-491): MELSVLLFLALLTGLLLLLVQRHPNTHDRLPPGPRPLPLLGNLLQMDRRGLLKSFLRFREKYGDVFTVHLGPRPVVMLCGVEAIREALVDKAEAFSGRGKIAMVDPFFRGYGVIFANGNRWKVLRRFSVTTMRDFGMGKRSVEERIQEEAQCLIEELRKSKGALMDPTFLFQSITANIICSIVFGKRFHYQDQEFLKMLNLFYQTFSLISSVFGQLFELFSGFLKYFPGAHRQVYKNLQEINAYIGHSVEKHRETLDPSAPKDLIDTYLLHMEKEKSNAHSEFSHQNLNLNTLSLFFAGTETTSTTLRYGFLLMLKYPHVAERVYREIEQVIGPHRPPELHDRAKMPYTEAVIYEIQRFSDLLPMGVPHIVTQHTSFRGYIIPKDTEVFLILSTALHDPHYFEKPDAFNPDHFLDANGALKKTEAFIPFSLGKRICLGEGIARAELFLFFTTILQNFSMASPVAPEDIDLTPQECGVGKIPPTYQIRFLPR

recombinant human CYP3A5 [8] = molecular target: T2, recombinant human CYP3A5; assay: Inhibition of C152 metabolism in SS; conditions: SS(3A5), 30 μM C152
[9] = molecular target: T3, recombinant human CYP2C19; assay: C152 demethylation, continuous fluorometric assay, Supersomes SS; format: in vitro ADME; conditions: SS(2C19)
human liver microsomes [10] = format: in vitro ADME
recombinant human CYP2B6 [11] = molecular target: T4, recombinant human CYP2B6; assay: C152 demethylation, continuous fluorometric assay, Supersomes SS; format: in vitro ADME; conditions: SS(2B6)
recombinant human CYP3A4 [12] = assay: as above; format: in vitro ADME
CYP2E1 = conditions: cited from earlier work
CYP2A6 [13] = conditions: cited from earlier work
recombinant human CYP3A5 [14] = molecular target: T2, recombinant human CYP3A5; assay: C152 demethylation, continuous fluorometric assay, Supersomes SS; format: in vitro ADME; conditions: SS(3A5)
CYP2C8 = conditions: cited from earlier work
[15] = HLM(FVT) + added CYP3A5 43 pmol/mg protein (molar ratio 0.125)
[16] = HLM(ODN) + added CYP3A5 54 pmol/mg protein (molar ratio 0.125)
[17] = N-demethylation of C152, HLM(ODN), added CYP2A6 0
[18] = N-demethylation of C152, HLM(ODN), added CYP2A6 54 pmol/mg protein (ratio 0.125)
[19] = N-demethylation of C152, HLM(ODN), added CYP2A6 108 pmol/mg protein (ratio 0.25)
[20] = N-demethylation of C152, HLM(ODN), added CYP2A6 216 pmol/mg protein (ratio 0.5)
[21] = N-demethylation of C152, HLM(ODN), added CYP2A6 433 pmol/mg protein (ratio 1)

T1 sequence (P08684 2-503 limits assumed): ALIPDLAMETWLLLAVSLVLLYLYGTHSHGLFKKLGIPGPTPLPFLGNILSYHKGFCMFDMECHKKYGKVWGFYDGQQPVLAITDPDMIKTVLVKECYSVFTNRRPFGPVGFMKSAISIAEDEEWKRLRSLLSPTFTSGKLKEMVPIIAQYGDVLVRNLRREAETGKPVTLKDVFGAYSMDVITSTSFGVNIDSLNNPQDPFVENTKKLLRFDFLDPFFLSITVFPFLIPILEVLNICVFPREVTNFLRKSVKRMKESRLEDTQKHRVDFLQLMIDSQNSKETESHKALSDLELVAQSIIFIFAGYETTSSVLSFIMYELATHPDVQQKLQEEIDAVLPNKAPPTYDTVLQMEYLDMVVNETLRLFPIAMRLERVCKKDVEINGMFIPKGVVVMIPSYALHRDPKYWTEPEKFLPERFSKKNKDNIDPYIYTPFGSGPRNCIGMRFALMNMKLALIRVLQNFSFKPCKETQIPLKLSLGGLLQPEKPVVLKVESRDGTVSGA

Clc1ccccc1C(c1ccccc1)(c1ccccc1)n1ccnc1 [Clotrimazole]
IC50 with CYP3A4 lower than the values observed with CYP2B6 and CYP2C19 (recombinant human CYP3A4 [1]): 1–2 orders of magnitude | IC50 (recombinant human CYP3A5 [2]): 0.164 ± 0.039 µM | IC50 ([3]; read-out: IC50 (Clotrimazole), SS(2C19), 30 μM C152): 0.202 ± 0.113 µM

O=c1ccc2ccccc2o1 [Coumarin, coumarin]
N (CYP2A6 [4]): 1.66 ± 0.41 | Vmax (CYP2A6 [4]): 5.6 ± 0.5 min⁻¹

Clc1ccc(Cc2ccncc2)cc1
IC50 (recombinant human CYP3A4 [5]): 0.225 ± 0.073 µM | Maximal inhibition (human liver microsomes [6]; HLM(FVT)+CYP3A5 (12.5% of total P450)): 89 ± 8% | Maximal inhibition (human liver microsomes [6]; HLM(FVT)): 79 ± 17% | Maximal inhibition (human liver microsomes [6]; HLM(IHG)): 90 ± 3% | Maximal inhibition (human liver microsomes [6]; HLM(LBA)): 88 ± 12% | Maximal inhibition (human liver microsomes [6]; HLM(LFJ)): 84 ± 23% | Maximal inhibition (human liver microsomes [6]; HLM(NQO)): 92 ± 4% | Maximal inhibition (human liver microsomes [6]; HLM(ODN)+CYP3A5 (12.5% of total P450)): 70 ± 3% | Maximal inhibition (human liver microsomes [6]; HLM(ODN)): 91 ± 2% | IC50 [3]: 0.215 ± 0.118 µM | IC50 (recombinant human CYP2B6 [7]): 0.035 ± 0.01 µM | Maximal inhibition (recombinant human CYP2B6 [7]; SS(2B6), 30 μM C152): 95 ± 3%

CC[C@@]1(c2ccccc2)NC(=O)N(Cc2ccccc2)C1=O [(+)-N-3-Benzylnirvanol, (S)-(+)-N-3-benzylnirvanol]
Maximal inhibition ((+)-N-3-Benzylnirvanol) (recombinant human CYP3A4 [5]; SS(3A4), 30 μM C152): 59 ± 10% | IC50 (recombinant human CYP3A4 [5]; read-out: IC50 ((+)-N-3-Benzylnirvanol), SS(3A4), 30 μM C152): 27 ± 3 µM | Maximal inhibition ((+)-N-3-Benzylnirvanol) (human liver microsomes [6]; HLM(FVT)): 62 ± 9% | Maximal inhibition ((+)-N-3-Benzylnirvanol) (human liver microsomes [6]; HLM(IHG)): 47 ± 12% | Maximal inhibition ((+)-N-3-Benzylnirvanol) (human liver microsomes [6]; HLM(LBA)+CYP2E1): 78 ± 36% | Maximal inhibition ((+)-N-3-Benzylnirvanol) (human liver microsomes [6]; HLM(LBA)): 57 ± 10% | Maximal inhibition ((+)-N-3-Benzylnirvanol) (human liver microsomes [6]; HLM(LFJ)+CYP2E1): 95 ± 6% | Maximal inhibition ((+)-N-3-Benzylnirvanol) (human liver microsomes [6]; HLM(LFJ)): 79 ± 22% | Maximal inhibition ((+)-N-3-Benzylnirvanol) (human liver microsomes [6]; HLM(NQO)): 78 ± 43% | Maximal inhibition ((+)-N-3-Benzylnirvanol) (human liver microsomes [6]; HLM(ODN)): 65 ± 4% | IC50 (human liver microsomes [6]; HLM(FVT)): 11 ± 4 µM | IC50 (human liver microsomes [6]; HLM(IHG)): 16 ± 2 µM | IC50 (human liver microsomes [6]; HLM(LBA)+CYP2E1): 26 ± 10 µM | IC50 (human liver microsomes [6]; HLM(LBA)): 0.51 ± 0.03 µM | IC50 (human liver microsomes [6]; HLM(LFJ)+CYP2E1): 12 ± 2 µM | IC50 (human liver microsomes [6]; HLM(LFJ)): 0.49 ± 0.12 µM | IC50 (human liver microsomes [6]; HLM(NQO)): 0.46 ± 0.39 µM | IC50 (human liver microsomes [6]; HLM(ODN)): 19 ± 15 µM | Maximal inhibition ((+)-N-3-Benzylnirvanol) (recombinant human CYP3A5 [8]): 78 ± 21% | IC50 (recombinant human CYP3A5 [8]; read-out: IC50 ((+)-N-3-Benzylnirvanol)): 6.6 ± 1.5 µM | Maximal inhibition ((+)-N-3-Benzylnirvanol) (recombinant human CYP2B6 [7]; SS(2B6), 30 μM C152): 81 ± 7% | IC50 (recombinant human CYP2B6 [7]; read-out: IC50 ((+)-N-3-Benzylnirvanol), SS(2B6), 30 μM C152): 8.5 ± 2.3 µM

CN(C)c1ccc2c(C(F)(F)F)cc(=O)oc2c1 [C152, 7-Dimethylamino-4-trifluromethylcoumarin]
S50 [9]: 5.7 ± 1.1 µM | Vmax [9]: 8.3 ± 3.4 min⁻¹ | N (the Hill coefficient) (human liver microsomes [10]; [15]): 1.41 ± 0.66 | S50 (human liver microsomes [10]; [15]): 1.73 ± 0.66 µM | Vmax (human liver microsomes [10]; [15]): 20.9 ± 5.7 min⁻¹ | N (the Hill coefficient) (human liver microsomes [10]; HLM(FVT)+CYP2E1): 1.28 ± 0.33 | S50 (human liver microsomes [10]; HLM(FVT)+CYP2E1): 18.9 ± 1.2 µM | Vmax (human liver microsomes [10]; HLM(FVT)+CYP2E1): 20.6 ± 1.3 min⁻¹ | N (the Hill coefficient) (human liver microsomes [10]; HLM(FVT), intact): 1.49 ± 0.67 | S50 (human liver microsomes [10]; HLM(FVT), intact): 14.2 ± 1.0 µM | Vmax (human liver microsomes [10]; HLM(FVT), intact): 33.6 ± 2.1 min⁻¹ | N (the Hill coefficient) (human liver microsomes [10]; HLM(IHG), intact): 1.03 ± 0.09 | S50 (human liver microsomes [10]; HLM(IHG), intact): 4.7 ± 2.7 µM | Vmax (human liver microsomes [10]; HLM(IHG), intact): 46.3 ± 3.8 min⁻¹ | N (the Hill coefficient) (human liver microsomes [10]; HLM(LBA)+CYP2E1): 1.14 ± 0.26 | S50 (human liver microsomes [10]; HLM(LBA)+CYP2E1): 8.8 ± 2.1 µM | Vmax (human liver microsomes [10]; HLM(LBA)+CYP2E1): 62.6 ± 5.6 min⁻¹ | N (the Hill coefficient) (human liver microsomes [10]; HLM(LBA), intact): 1.76 ± 0.33 | S50 (human liver microsomes [10]; HLM(LBA), intact): 4.4 ± 1.5 µM | Vmax (human liver microsomes [10]; HLM(LBA), intact): 75.0 ± 10.6 min⁻¹ | N (the Hill coefficient) (human liver microsomes [10]; HLM(LFJ)+CYP2E1): 1.37 ± 0.44 | S50 (human liver microsomes [10]; HLM(LFJ)+CYP2E1): 11.6 ± 2.8 µM | Vmax (human liver microsomes [10]; HLM(LFJ)+CYP2E1): 44.7 ± 5.9 min⁻¹ | N (the Hill coefficient) (human liver microsomes [10]; HLM(LFJ), intact): 1.94 ± 0.51 | S50 (human liver microsomes [10]; HLM(LFJ), intact): 4.8 ± 1.2 µM | Vmax (human liver microsomes [10]; HLM(LFJ), intact): 47.8 ± 3.2 min⁻¹ | N (the Hill coefficient) (human liver microsomes [10]; HLM(NQO), intact): 1.03 ± 0.05 | S50 (human liver microsomes [10]; HLM(NQO), intact): 3.7 ± 1.9 µM | Vmax (human liver microsomes [10]; HLM(NQO), intact): 29.9 ± 3.6 min⁻¹ | N (the Hill coefficient) (human liver microsomes [10]; [16]): 1.73 ± 0.69 | S50 (human liver microsomes [10]; [16]): 1.83 ± 0.96 µM | Vmax (human liver microsomes [10]; [16]): 22.4 ± 1.3 min⁻¹ | N (the Hill coefficient) (human liver microsomes [10]; HLM(ODN), intact): 1.40 ± 0.17 | S50 (human liver microsomes [10]; HLM(ODN), intact): 3.3 ± 0.5 µM and 3.29 ± 0.53 µM | Vmax (human liver microsomes [10]; HLM(ODN), intact): 37.1 ± 10.2 min⁻¹ | N (the Hill coefficient) (human liver microsomes [10]; HLM(S9)+CYP2E1): 1.16 ± 0.37 | S50 (human liver microsomes [10]; HLM(S9)+CYP2E1): 3.2 ± 1.5 µM | Vmax (human liver microsomes [10]; HLM(S9)+CYP2E1): 6.6 ± 0.8 min⁻¹ | N (the Hill coefficient) (human liver microsomes [10]; HLM(S9), intact): 1.27 ± 0.25 | S50 (human liver microsomes [10]; HLM(S9), intact): 5.5 ± 2.9 µM | Vmax (human liver microsomes [10]; HLM(S9), intact): 17.8 ± 4.6 min⁻¹ | Km (human liver microsomes [10]; [17]): 3.29 ± 0.53 µM | N (human liver microsomes [10]; [17]): 1.40 ± 0.17 | Vmax (human liver microsomes [10]; [17]): 37.1 ± 10.2 min⁻¹ | Km (human liver microsomes [10]; [18]): 11.4 ± 0.2 µM | N (human liver microsomes [10]; [18]): 1.30 ± 0.21 | Vmax (human liver microsomes [10]; [18]): 29.1 ± 1.3 min⁻¹ | Km (human liver microsomes [10]; [19]): 4.15 ± 1.33 µM | N (human liver microsomes [10]; [19]): 1.04 ± 0.05 | Vmax (human liver microsomes [10]; [19]): 60.1 ± 10.9 min⁻¹ | Km (human liver microsomes [10]; [20]): 6.88 ± 2.47 µM | N (human liver microsomes [10]; [20]): 1.14 ± 0.23 | Vmax (human liver microsomes [10]; [20]): 56.2 ± 4.9 min⁻¹ | Km (human liver microsomes [10]; [21]): 4.57 ± 2.57 µM | N (human liver microsomes [10]; [21]): 1.38 ± 0.24 | Vmax (human liver microsomes [10]; [21]): 75.3 ± 25.2 min⁻¹ | S50 (recombinant human CYP2B6 [11]): 1.8 ± 0.2 µM | Vmax (recombinant human CYP2B6 [11]): 44.2 ± 14.8 min⁻¹ | N (the Hill coefficient) (recombinant human CYP3A4 [12]; SS(3A4)): 1.61 ± 0.24 | S50 (recombinant human CYP3A4 [12]; SS(3A4)): 4.5 ± 1.2 µM | Vmax (recombinant human CYP3A4 [12]; SS(3A4)): 23.8 ± 4.2 min⁻¹ | N (the Hill coefficient) (recombinant human CYP3A4 [12]; SS(3A4)+CYP2E1): 1.28 ± 0.31 | S50 (recombinant human CYP3A4 [12]; SS(3A4)+CYP2E1): 10.2 ± 2.8 µM | Vmax (recombinant human CYP3A4 [12]; SS(3A4)+CYP2E1): 34.0 ± 4.6 min⁻¹ | activity of CYP2E1 with C152 (CYP2E1): do not exhibit any activity | ability of CYP2A6 to catalyze demethylation of C152 (CYP2A6 [13]): lacks any ability to catalyze the demethylation of C152 | S50 (recombinant human CYP3A5 [14]): 16.4 ± 4.8 µM | Vmax (recombinant human CYP3A5 [14]): 8.8 ± 1.0 min⁻¹ | S50 (CYP2C8): 12 ± 6 µM | turnover (CYP2C8): 2.6 ± 0.8 min⁻¹
